pEC50, pIC50: −log10 of the molar value.

Consider 21 compounds from US20070099915A1, “INHIBITORS OF THE HIV INTEGRASE ENZYME” (PFIZER INC., priority 2005, published 2007).

The target of assay [1] is T1, Full-length wild type HIV-1 integrase (SF1) (Human immunodeficiency virus type 1 group M subtype B, UniProt P04585).
T1 construct: made in house; host or cells: E. coli BL21 (DE3)
The assay can be described thus: Integrase strand-transfer scintillation proximity assay. It counts as biochemical. The following applies: strand-transfer SPA, 246 nM integrase, 50 nM host DNA, 37° C., 50 min; read-out: IC50. (In general: SPA uses beads or plates that emit light when radiolabelled molecules are held near them.)

For assay [2], the system named is HIV-1 RF virus in CEM-SS cells. Put plainly: HIV-1 cell protection assay (XTT dye reduction). It counts as cell-based. The following applies: Human immunodeficiency virus 1, 144 h; RF strain of HIV-1, CEM-SS cells, XTT read-out after six days; read-out: EC50. A digest of the protocol: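 Infected CEM-SS cultures incubated six days, then XTT with phenazine methosulfate added for 4 h; viability read as formazan absorbance at 450 nm. Formazan expressed as percent of uninfected, compound-free cells; CC50 from uninfected treated cells, therapeutic index as CC50/EC50.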

A further assay relates to HIV-1. The following applies: HIV-1 infected patients; S. Little et al., CROI 2005, Abstract 161; cited from earlier work.

The pIC50 is the IC50 on a negative log10 scale, so that one unit is a factor of ten. One may read the pEC50 as the negative decadic logarithm of the EC50, by convention in mol/L. With `CN(C)CCc1cn(Cc2ccc(F)cc2)c2cnc3c(c12)CCN(O)C3=O` [Example 104, 3-(4-fluorobenzyl)-1-(2-(dimethylamino)ethyl)-7-hydroxy-8,9-dihydro-3H-pyrrolo[2,3-c][1,7]naphthyridin-6(7H)-one], the pIC50 in assay [1] was 7.62. Also, the pEC50 in assay [2] is 7.49.

On to `CN(CCCc1cn(Cc2ccc(F)cc2)c2cnc3c(c12)CCN(O)C3=O)CC1CCOCC1` [Example 105, 3-(4-fluorobenzyl)-7-hydroxy-1-{3-[methyl(tetrahydro-2H-pyran-4-ylmethyl)amino]propyl}-3,7,8,9-tetrahydro-6H-pyrrolo[2,3-c]-1,7-naphthyridin-6-one], for which the pIC50 in assay [1] was 7.62. Moreover, the pEC50 in assay [2] was 7.80.

Regarding `COCCOCCCc1cn(Cc2ccc(F)cc2)c2cnc3c(c12)CCN(O)C3=O` [Example 106, 3-(4-fluorobenzyl)-7-hydroxy-1-[3-(2-methoxyethoxy)propyl]-3,7,8,9-tetrahydro-6H-pyrrolo[2,3-c]-1,7-naphthyridin-6-one], in assay [1], the pIC50 is 7.85. In addition, the pEC50 in assay [2] is 9.02.

On to `CN(CCc1cn(Cc2ccc(F)cc2)c2cnc3c(c12)CCN(O)C3=O)C1CCOCC1` [Example 108, 3-(4-fluorobenzyl)-7-hydroxy-1-(2-(methyl(tetrahydro-2H-pyran-4-yl)amino)ethyl)-8,9-dihydro-3H-pyrrolo[2,3-c][1,7]naphthyridin-6(7H)-one], for which the pIC50 in assay [1] is 7.68. For the same compound, the pEC50 in assay [2] was 7.80.

As for `O=C1c2ncc3c(c(CCN4CCC(F)(F)C4)cn3Cc3ccc(F)cc3)c2CCN1O` [Example 109, 3-(4-fluorobenzyl)-1-(2-(3,3-difluoropyrrolidin-1-yl)ethyl)-7-hydroxy-8,9-dihydro-3H-pyrrolo[2,3-c][1,7]naphthyridin-6(7H)-one], in assay [1], the pIC50 was 7.85. For the same compound, the pEC50 in assay [2] was 9.00.

With `O=C1c2ncc3c(c(CCO)cn3Cc3ccc(F)cc3)c2CCN1O` [Example 110, 3-(4-fluorobenzyl)-7-hydro-1-(2-hydroxyethyl)-8,9-dihydro-3H-pyrrolo[2,3-c][1,7]naphthyridin-6(7H)-one], the pIC50 in assay [1] was 7.96. For the same compound, the pEC50 in assay [2] was 8.30.

`O=C1c2ncc3c(c(CCN4CCOCC4)cn3Cc3ccc(F)cc3)c2CCN1O` [Example 111, 3-(4-fluorobenzyl)-7-hydroxy-1-(2-morpholinoethyl)-8,9-dihydro-3H-pyrrolo[2,3-c][1,7]naphthyridin-6(7H)-one]: the pIC50 in assay [1] is 7.92. In assay [2], the pEC50 was 8.40.

In the case of `O=C1c2ncc3c(c(CCNC4CCOCC4)cn3Cc3ccc(F)cc3)c2CCN1O` [Example 112, 3-(4-flourobenzyl)-7-hydroxy-1-(2-(tetrahydro-2H-pyran-4-ylamino)ethyl)-8,9-dihydro-3H-pyrrolo[2,3-c][1,7]naphthyridin-6(7H)-one], the pIC50 in assay [1] was 7.55. Also, the pEC50 in assay [2] was 7.20.

Turning to `CN(CCc1cn(Cc2ccc(F)cc2)c2cnc3c(c12)CCN(O)C3=O)CC(F)(F)F` [Example 113, 3-(4-fluorobenzyl)-7-hydroxy-1-{2-[methyl(2,2,2-trifluoroethyl)amino]ethyl}-3,7,8,9-tetrahydro-6H-pyrrolo[2,3-c]-1,7-naphthyridin-6-one], the pIC50 in assay [1] is 7.82. Moreover, the pEC50 in assay [2] was 8.70.

In the case of `CN(CCc1cn(Cc2ccc(F)cc2)c2cnc3c(c12)CCN(O)C3=O)CC1CC1` [Example 114], the pIC50 in assay [1] was 7.72. In addition, in assay [2], the pEC50 was 8.00.

In the case of `O=C1c2ncc3c(c(CCNCC(F)(F)F)cn3Cc3ccc(F)cc3)c2CCN1O` [Example 115, 3-(4-fluorobenzyl)-7-hydroxy-1-{2-[(2,2,2-trifluoroethyl)amino]ethyl}-3,7,8,9-tetrahydro-6H-pyrrolo[2,3-c]-1,7-naphthyridin-6-one], the pIC50 in assay [1] is 7.85. For the same compound, in assay [2], the pEC50 was 8.70.

As to `O=C1c2ncc3c(c(CCNCCC(F)(F)F)cn3Cc3ccc(F)cc3)c2CCN1O` [Example 117, 3-(4-fluorobenzyl)-7-hydroxy-1-{2-[(3,3,3-trifluoropropyl)amino]ethyl}-3,7,8,9-tetrahydro-6H-pyrrolo[2,3-c]-1,7-naphthyridin-6-one], the pIC50 in assay [1] is 7.77. Besides, the pEC50 in assay [2] is 8.22.

Consider `COCCN(C)CCc1cn(Cc2ccc(F)cc2)c2cnc3c(c12)CCN(O)C3=O` [Example 118, 3-(4-fluorobenzyl)-7-hydroxy-1-{2-[(2-methoxyethyl)(methyl)amino]ethyl}-3,7,8,9-tetrahydro-6H-pyrrolo[2,3-c]-1,7-naphthyridin-6-one], for which the pIC50 in assay [1] is 7.70. Besides, the pEC50 in assay [2] is 7.89.

Regarding `CN1CCN(CCc2cn(Cc3ccc(F)cc3)c3cnc4c(c23)CCN(O)C4=O)CC1=O` [Example 119, 3-(4-fluorobenzyl)-7-hydroxy-1-[2-(4-methyl-3-oxopiperazin-1-yl)ethyl]-3,7,8,9-tetrahydro-6H-pyrrolo[2,3-c]-1,7-naphthyridin-6-one], the pIC50 in assay [1] was 7.92. The pEC50 in assay [2] is 7.15.

With `O=C1c2ncc3c(c(CCCO)cn3Cc3ccc(F)cc3)c2CCN1O` [Example 120, 3-(4-fluorobenzyl)-7-hydroxy-1-(3-hydroxypropyl)-3,7,8,9-tetrahydro-6H-pyrrolo[2,3-c]-1,7-naphthyridin-6-one], in assay [1], the pIC50 is 7.89. In assay [2], the pEC50 is 8.05.

On to `COC(C)(C)CCc1cn(Cc2ccc(F)cc2)c2cnc3c(c12)CCN(O)C3=O` [Example 121, 3-(4-fluorobenzyl)-7-hydroxy-1-(3-methoxy-3-methylbutyl)-3,7,8,9-tetrahydro-6H-pyrrolo[2,3-c]-1,7-naphthyridin-6-one], for which the pIC50 in assay [1] was 7.85. For the same compound, in assay [2], the pEC50 was 9.40.

Take `CN(CCCc1cn(Cc2ccc(F)cc2)c2cnc3c(c12)CCN(O)C3=O)Cc1ccccn1` [Example 122, 3-(4-fluorobenzyl)-7-hydroxy-1-{3-[methyl(pyridin-2-ylmethyl)amino]propyl}-3,7,8,9-tetrahydro-6H-pyrrolo[2,3-c]-1,7-naphthyridin-6-one]: the pIC50 in assay [1] is 7.59. The pEC50 in assay [2] is 8.30.

Consider `CC(C)CN(C)Cc1cn(Cc2ccc(F)cc2)c2cnc3c(c12)CCN(O)C3=O` [Example 123, 3-(4-fluorobenzyl)-7-hydroxy-1-{[isobutyl(methyl)amino]methyl}-3,7,8,9-tetrahydro-6H-pyrrolo[2,3-c]-1,7-naphthyridin-6-one], for which the pIC50 in assay [1] is 7.36. Further, the pEC50 in assay [2] is 8.80.

For `CN1CCN(CCCc2cn(Cc3ccc(F)cc3)c3cnc4c(c23)CCN(O)C4=O)CC1=O` [Example 127, 3-(4-fluorobenzyl)-7-hydroxy-1-[3-(4-methyl-3-oxopiperazin-1-yl)propyl]-3,7,8,9-tetrahydro-6H-pyrrolo[2,3-c]-1,7-naphthyridin-6-one], the pIC50 in assay [1] was 7.85. Further, in assay [2], the pEC50 was 7.40.

Turning to `O=C1c2ncc3c(c(CCCOCCN4CCOCC4)cn3Cc3ccc(F)cc3)c2CCN1O` [Example 128, 3-(4-fluorobenzyl)-7-hydroxy-1-[3-(2-morpholin-4-ylethoxy)propyl]-3,7,8,9-tetrahydro-6H-pyrrolo[2,3-c]-1,7-naphthyridin-6-one], in assay [1], the pIC50 is 7.68. Also, the pEC50 in assay [2] is 8.30.

As for `O=C(NCc1ccc(F)cc1)c1nc(N2CCCCS2(=O)=O)c2cccnc2c1O` [Example L-000870810], the “clinical efficacy in the treatment of HIV-infected patients” value in the assay on HIV-1 is listed as “showed clinical efficacy”.
